What all share (assay type): biochemical
In one experiment the target is T1, human rChAT (Homo sapiens, UniProt P28329).
T1 construct: made in house; host or cells: E. coli BL21 Rosetta2
T1 sequence (P28329 1-630 isoform P28329-3): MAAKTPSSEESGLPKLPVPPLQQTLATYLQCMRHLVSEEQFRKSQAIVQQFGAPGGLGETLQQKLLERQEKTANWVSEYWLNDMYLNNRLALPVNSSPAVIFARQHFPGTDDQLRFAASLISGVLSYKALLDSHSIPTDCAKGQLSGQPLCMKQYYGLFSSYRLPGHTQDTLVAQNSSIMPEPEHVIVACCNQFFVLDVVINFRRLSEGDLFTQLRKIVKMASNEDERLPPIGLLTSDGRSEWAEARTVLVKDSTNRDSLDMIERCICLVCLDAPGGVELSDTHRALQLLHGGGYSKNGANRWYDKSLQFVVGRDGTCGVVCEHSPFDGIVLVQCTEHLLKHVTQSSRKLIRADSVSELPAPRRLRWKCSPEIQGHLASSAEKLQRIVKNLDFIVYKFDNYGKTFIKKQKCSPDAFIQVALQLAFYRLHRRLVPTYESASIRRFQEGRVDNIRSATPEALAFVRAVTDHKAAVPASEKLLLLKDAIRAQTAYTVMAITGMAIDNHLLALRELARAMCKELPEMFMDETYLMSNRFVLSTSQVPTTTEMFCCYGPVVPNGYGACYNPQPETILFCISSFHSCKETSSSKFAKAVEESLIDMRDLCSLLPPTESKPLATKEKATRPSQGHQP
Put plainly: In vitro ChAT activity inhibition fluorometric assay and kinetic studies. The settings on record: 100 µM compound; compared to control; mean of three experiments in triplicate; read-out: ChAT % IR (inhibition rate). Here is the method:
ChAT activity was measured using our newly developed fluorometric assay, using human recombinant ChAT (rChAT) protein. The reagents, choline chloride, acetyl coenzyme-A (ACoA, A2181) and 7-Diethylamino-3-(4-maleimidophenyl)-4-methylcoumarin (CPM) were purchased from Sigma-Aldrich (St. Louis, MO, USA).
The ChAT assay could be run in either 96-well or 384-well plates. For 96-well plates, 50 μL/well of 0.212 µg/ml (final concentration) of the recombinant ChAT was incubated with 100 μM different Asinex compounds (50 μL/well) for 10–30 minutes at room temperature in dilution buffer (10 mM Tris-HCl, pH 7.4, 150 mM NaCl, 1.0 mM EDTA, 0.05% (v/v) Triton X-100). Then, 50 µL of a cocktail-A [dilution buffer containing choline chloride (final concentration 150 µM), ACoA (final concentration 13.3 µM) and CPM (final concentration 15 µM)] was added to each well. Immediately after adding the cocktail-A, the changes in fluorescence was monitored kinetically at 479 nm after exciting at 390 nm at 1–2 minute intervals for 15–20 minutes using a microplate spectrophotometer reader (Infinite M1000, Tecan).
Each Asinex compounds were run in triplicates. On each 96-wells plate, several enzyme wells without inhibitor were also included during measurements as control and for estimating the inhibition level. Negative controls were wells without enzyme. The percentage inhibition for each Asinex compound was calculated based on the enzyme control value as a reference (100% activity). The compounds showing over 50% inhibition of enzyme activity were selected for further kinetic studies.
(§1) For kinetic studies, a similar protocol as inhibition assay was followed; a dilution series of five different concentrations ranging from 10^−6 to 10^−9 M were prepared for each selected Asinex compounds. For ChAT, the A-CoA was kept constant at 10 μM (final) but the concentration of choline chloride varied between 320–10 μM. For BuChE, BTC was used as the substrate in the concentrations ranging from 0.0625 to 2 mM. For AChE, ATC was used as the substrate in the concentrations ranging from 0.0312 to 1 mM. Each compound concentration was measured in duplicates. The rate of enzyme activity (as ∆OD/hr kinetic data) was calculated and processed using the GraphPad Prism 7 analysis software. The inhibitory constant (Ki) values were determined from the dose-response curve and the half-maximal inhibitory concentration (IC50) values were calculated by plotting the percentage enzyme activity vs. the log of the Asinex compound concentrations and fitting the data using the nonlinear regression Enzyme Kinetics-Inhibition function.
The Michaelis-Menten constant (Km) and maximal velocity (Vmax) values were calculated from substrate-velocity curve after fitting the data with non-linear regression Michaelis-Menten kinetic function. The Km and Vmax values were further used to plot the Lineweaver-Burk plots; the plots were fitted using linear regression function.

The target in the next experiment is T2, plasma BuChE (Homo sapiens, UniProt P06276).
T2 construct: 1:450 diluted solution of a pooled human plasma; from tissue; host or cells: pooled human plasma
T2 sequence (P06276 29-602): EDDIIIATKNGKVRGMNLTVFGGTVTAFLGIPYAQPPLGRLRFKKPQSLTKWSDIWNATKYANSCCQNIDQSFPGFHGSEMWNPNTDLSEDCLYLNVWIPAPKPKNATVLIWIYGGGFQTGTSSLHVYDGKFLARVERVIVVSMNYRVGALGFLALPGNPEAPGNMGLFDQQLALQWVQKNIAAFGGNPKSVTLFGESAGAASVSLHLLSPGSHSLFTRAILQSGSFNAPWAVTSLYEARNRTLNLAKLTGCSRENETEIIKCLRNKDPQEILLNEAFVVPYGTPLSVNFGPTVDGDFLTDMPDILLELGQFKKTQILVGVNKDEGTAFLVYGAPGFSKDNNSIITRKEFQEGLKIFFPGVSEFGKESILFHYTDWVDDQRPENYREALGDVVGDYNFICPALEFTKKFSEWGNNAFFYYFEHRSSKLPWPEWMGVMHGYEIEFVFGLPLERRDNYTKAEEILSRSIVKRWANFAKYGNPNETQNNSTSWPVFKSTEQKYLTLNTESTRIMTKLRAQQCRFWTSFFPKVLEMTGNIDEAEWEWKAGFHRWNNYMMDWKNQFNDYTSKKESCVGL
Put plainly: Modified Ellman's colorimetric assay for BuChE (pooled human plasma) and kinetic studies. Particulars: 200 µM compound; compared to control; mean of three experiments in triplicate; read-out: BuChE % IR (inhibition rate).
Source text: (§2) A modified version of Ellman’s colorimetric assay[16],[17] was adapted to a high throughput assay for the enzymatic activity of BuChE and AChE. The reagent, butyrylthiocholine iodide (BTC), acetylthiocholine iodide (ATC), 5,5′-dithiobis (2-nitrobenzoic acid) (DTNB) were purchased from Sigma-Aldrich (St. Louis, MO, USA). The modified assay details are as previously described[34],[35]. The main modification concerned with the high throughput adaptation of the assay for use in 384-well plates. Briefly, 25 μL/well of a 1:450 diluted solution of a pooled human plasma and 1:768 diluted (3.5 ng/ml final concentration) purified recombinant human AChE protein (Sigma, Cat no. C1682) was used for measurement of BuChE and AChE activity, respectively. In the initial in vitro screening step, the wells were pre-incubated with 25 μL/wells of different Asinex compounds for 10–30 minutes at room temperature. The concentration of the compounds working solution was 3X to give a final concentration of 200 μM in a final volume of 75 μL in each well. The stock concentration of the compounds were prepared in 100% DMSO. The stock concentration was chosen usually at 10 mM, allowing the final DMSO concentration in the wells to be less than 4%. Finally, 25 μL of a cocktail mix prepared in Na/K phosphate buffer, containing DTNB (final concentration 0.4 mM) and BTC, (final concentration 1 mM) or ATC (final concentration 0.5 mM) was added to each well and the changes in absorbance was monitored at 412 nm wavelength for 15–20 minutes with one-minute interval, using a microplate spectrophotometer reader (Infinite M1000, Tecan). The rate of the enzyme activity was determined from the linear part of the kinetic reaction curves as ∆OD/time.
as §1
For orientation: DTNB colorimetry detects thiols as they appear.

For a further experiment, the target named is T3, recombinant human AChE (Homo sapiens, UniProt P22303).
T3 construct: purchased Sigma C1682
T3 sequence (P22303 32-614): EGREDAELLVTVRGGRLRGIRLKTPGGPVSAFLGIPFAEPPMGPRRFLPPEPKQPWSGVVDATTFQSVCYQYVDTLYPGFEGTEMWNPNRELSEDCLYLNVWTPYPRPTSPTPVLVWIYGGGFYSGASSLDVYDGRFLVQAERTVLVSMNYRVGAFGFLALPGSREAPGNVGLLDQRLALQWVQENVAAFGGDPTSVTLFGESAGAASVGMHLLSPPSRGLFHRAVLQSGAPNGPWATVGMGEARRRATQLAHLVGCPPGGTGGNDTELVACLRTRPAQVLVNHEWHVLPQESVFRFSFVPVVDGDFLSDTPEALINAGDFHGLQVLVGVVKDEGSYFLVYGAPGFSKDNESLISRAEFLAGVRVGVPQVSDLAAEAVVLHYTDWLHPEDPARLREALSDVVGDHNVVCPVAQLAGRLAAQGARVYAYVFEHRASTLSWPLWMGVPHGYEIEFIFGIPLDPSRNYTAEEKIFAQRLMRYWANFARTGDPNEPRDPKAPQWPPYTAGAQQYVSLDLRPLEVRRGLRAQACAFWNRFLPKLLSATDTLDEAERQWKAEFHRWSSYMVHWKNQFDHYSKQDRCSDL
Put plainly: Modified Ellman's colorimetric assay for AChE and kinetic studies. The settings on record: for inhibition at 200 µM: 200 µM compound, compared to control, mean of three experiments in triplicate, read-out: AChE % IR (inhibition rate); for Ki / IC50: mean of two experiments; for IC50: substrate ATC 0.5 mM.
Source text: as §2, §1

Structures are written as SMILES.

For the compound `COc1cc(OC)cc(C(=O)N2CCN(C(=O)C(c3ccccc3)c3ccccc3)CC2)c1` [Compound A1], the inhibition at 100 µM at human rChAT amounted to 0%. In addition, the inhibition at 200 µM at plasma BuChE turned out to be 4.8%; on recombinant human AChE it was 0%.
For `CCOC(=O)c1sc2ncn(CCc3ccccc3)c(=O)c2c1C` [Compound A3], the inhibition at 100 µM at human rChAT was found to be 6.9%. For the same compound, the inhibition at 200 µM was determined as 15.1% at plasma BuChE and 0% at recombinant human AChE.
For `Cc1c(C)n(C(=O)CSc2nnc(-c3ccccc3)o2)c2ccccc12` [Compound A4], in that order: 26.7%, 14.4% and 0%.
In the case of `CC1(C)CC(=O)C(=CNCC2CCN(C(=O)Cc3ccc(Cl)cc3)CC2)C(=O)C1` [Compound A5], the inhibition at 100 µM on human rChAT came to 2.1%. Also, the inhibition at 200 µM worked out at 9.2% on plasma BuChE and 7% at recombinant human AChE.
Take `Cc1cc2nc(C3CCN(CC(=O)Nc4ccccc4)CC3)[nH]c2cc1C` [Compound A6]: the inhibition at 100 µM at human rChAT is 0%. The inhibition at 200 µM at plasma BuChE came to 20.2%; at recombinant human AChE, 11.9%.
For the compound `Clc1cccc(N2CCN(Cc3nnn(Cc4ccco4)n3)CC2)c1` [Compound A7], the inhibition at 100 µM on human rChAT is 7.2%. The inhibition at 200 µM at plasma BuChE is 29.9%; on recombinant human AChE it was 15.8%.
Consider `COc1ccc(Cl)cc1NC(=O)CCN1CCN(c2ccccc2C)CC1` [Compound B2], for which the inhibition at 100 µM on human rChAT came to 0%. The inhibition at 200 µM on plasma BuChE was found to be 18.5%; at recombinant human AChE it was 0%.
In the case of `COc1ccc(CC(=O)Nc2cc3oc4ccccc4c3cc2OC)cc1` [Compound B3], the inhibition at 100 µM on human rChAT was found to be 0%. The inhibition at 200 µM on plasma BuChE stood at 16.6%; at recombinant human AChE it was 0%.
With `COc1cc(CN2CCC(C(=O)N3CCC(C)CC3)CC2)ccc1OCc1ccccc1` [Compound B5], the inhibition at 100 µM at human rChAT was found to be 0%. In addition, the values for the inhibition at 200 µM on plasma BuChE and at recombinant human AChE were 39.5% and 26.1%, respectively.
For `COc1ccccc1N1CCN(c2nc(-c3ccc(C)cc3)cc(=O)[nH]2)CC1` [Compound B6], in that order: 7.6%, 11% and 2.6%.
`O=C(Nc1ccc(CN2CCOCC2)cc1)c1ccc2c(c1)[nH]c(=O)n2CCc1ccccc1` [Compound B7]: the inhibition at 100 µM on human rChAT was 13.3%. In addition, the inhibition at 200 µM on plasma BuChE was 14.9%. Also, on recombinant human AChE, the inhibitory constant (Ki) was determined as 65.4 µM and the IC50 came out at 40.1 µM.
For the compound `CN(C(=O)COc1ccc(-c2nn(C)c(=O)c3ccccc23)cc1)C1CCCCC1` [Compound C1], the inhibition at 100 µM on human rChAT was determined as 0%. On plasma BuChE, the inhibition at 200 µM came out at 9.8%. For the same compound, on recombinant human AChE, the Ki turned out to be 42.3 µM and the IC50 was 71.9 µM.
With `CCn1c(CNC(=O)COc2ccc(Cl)cc2)cc2ccccc21` [Compound C3], the inhibition at 100 µM on human rChAT is 0%. Further, the inhibition at 200 µM was 20.1% at plasma BuChE and 22% at recombinant human AChE.
For `COc1ccc(-c2nnc(-c3cc4c(ccc5ccccc54)oc3=O)o2)cc1` [Compound C6], the inhibition at 200 µM at plasma BuChE came to 34.7%; at recombinant human AChE, 33.1%.
Turning to `COCCNc1c(-c2cc3cc(C)ccc3[nH]c2=O)nc2ccc(Cl)cn12` [Compound C7], the inhibition at 100 µM at human rChAT turned out to be 0%. Besides, the inhibition at 200 µM stood at 29.4% on plasma BuChE and 15.7% at recombinant human AChE.
For `Cc1cccc(N2CCN(CC(=O)Nc3ccc(C)c(F)c3)CC2)c1` [Compound D1], in that order: 0%, 20% and 0%.
For `CC(=O)c1ccc(NC(=O)CN2CCN(c3cccc(C)c3C)CC2)cc1` [Compound D2], in that order: 0%, 7% and 18.1%.
In the same order, the values of `COc1ccc(NC(=O)Cn2nc(C(F)(F)F)c3c2CCCC3)c(OC)c1` [Compound D5] are 0%, 7.8% and 4.2%.

In general, inhibition refers to the drop in the measured response relative to a control, in per cent. The Ki is a dissociation constant, usually derived from enzyme kinetics or from competition with a known ligand. In general, IC50 refers to the midpoint of a concentration-inhibition curve.
